Earlier results in the CATMoS acute toxicity set (Mansouri et al. 2021).
Values joined by “and” are separate entries in the source; they are usually repeats but may differ in a detail not shown here. Identical values can stand only once.

Test: rat acute oral toxicity
Conditions: in vivo

Row | Compound | LD50
1 | CC(=O)C1(O)CCC(c2ccccc2)CC1 (stereo not given) | 8000 mg/kg
2 | CC(C)(C)[C@H](O)/C(=C\c1ccc(Cl)cc1)n1cncn1 | 430 mg/kg
3 | CN1CCC(=C2c3ccccc3Oc3ccc(Cl)cc32)CC1 | 319 mg/kg
4 | C=CCn1ccc(=O)c(O)c1C | 800 mg/kg
5 | CC1(C)CC1CC1C(=O)N(c2ccccc2)N(c2ccccc2)C1=O (stereo not given) | 800 mg/kg
6 | Cc1oncc1C(=O)Nc1ccc(C(F)(F)F)cc1 | 235 mg/kg
7 | CC1=CCC(C(C)C)=CC1 | 3650 mg/kg
8 | S=C=NCCN=C=S | 112 mg/kg
9 | CCCCCCNC(=O)n1cc(F)c(=O)[nH]c1=O | 268 mg/kg
10 | CC[Si](OC(C)=O)(OC(C)=O)OC(C)=O | 1460 mg/kg
11 | O=S(=O)(O)C(F)(F)C(F)(F)C(F)(F)C(F)(F)C(F)(F)C(F)(F)C(F)(F)C(F)(F)F | 251 mg/kg and 154 mg/kg
12 | CC(C)(OOC(C)(C)c1ccccc1)c1ccccc1 | 4100 mg/kg
13 | CN1CSC(=S)N(C)C1 | 320 mg/kg
14 | CCc1cc(CC)cc(OC(=O)NC)c1 | 1600 mg/kg
15 | S=C1NCNCN1 | 4.6 mg/kg
16 | O=CC1C(=O)N(c2ccccc2)N=C1c1ccccc1 (stereo not given) | 789 mg/kg
17 | CN(C)C1CC(c2ccccc2)c2ccccc21 (stereo not given) | 176 mg/kg
18 | C/C=N/O | 740 mg/kg
19 | CC(C)CC(CCN(C(C)C)C(C)C)(C(N)=O)c1ccccn1 (stereo not given) | 1100 mg/kg
20 | CC(C(=O)O)c1cccc2c(-c3ccccc3)coc12 (stereo not given) | 950 mg/kg
21 | CC(C)=CCN1CC[C@@]2(C)c3cc(O)ccc3C[C@@H]1[C@@H]2C (racemic) | 1110 mg/kg
22 | COc1cc(Br)c2oc(C3CCNCC3)cc2c1 | 310 mg/kg
23 | CCN(CC)C(C)C(=O)c1ccc(NS(C)(=O)=O)cc1 (stereo not given) | 2350 mg/kg

Row | Compound | LD50
24 | COc1ccc(CCNCC(O)COc2cccc(C)c2)cc1OC (stereo not given) | 460 mg/kg
25 | O=C1[C@H]2C[C@@H]3[C@@H]4[C@H]2[C@]2(Cl)[C@@H](Cl)[C@](Cl)([C@H]13)[C@@]4(Cl)C2(Cl)Cl (racemic) | 10 mg/kg
26 | O=C(CCl)c1ccc(Cl)cc1Cl | 300 mg/kg
27 | CCOC(C1=NCCCN1)c1cccc(Cl)c1 (stereo not given) | 695 mg/kg
28 | O=C1c2ccccc2C(=O)N1SC1CCCCC1 | 2600 mg/kg
29 | CC(C)C(=O)C(C)C | 3540 mg/kg
30 | O=C(CF)OCCOC(=O)CF | 2.2 mg/kg
31 | CC(C(=O)O)c1ccc(N2Cc3ccccc3C2=O)cc1 (stereo not given) | 84 mg/kg and 60.8 mg/kg
32 | COc1ccc2c(c1)N(CCCN(C)C)c1ccccc1S2 | 730 mg/kg
33 | Oc1cccc2cc3cccc(O)c3c(O)c12 | 3220 mg/kg
34 | CCCCOC(CBr)c1ccc(C2CCCC2)cc1 (stereo not given) | 250 mg/kg
35 | CCCCCCCC[N+](C)(CCCCCCCC)CCCCCCCC | 223 mg/kg
36 | CC(C)OC(=O)c1ccccc1 | 3730 mg/kg
37 | CCCCc1c(C)nc2ccccn2c1=O | 1100 mg/kg
38 | CC(C)CCCC1CCC(C)(C(=O)NCC(=O)O)CC1 (stereo not given) | 10300 mg/kg
39 | N#Cc1ccccc1CN1CCc2sccc2C1 | 228 mg/kg
40 | O=C(O)c1ccc(Cl)c([N+](=O)[O-])c1 | 3150 mg/kg
41 | CCC(=O)c1ccc2c(c1)N(CC(C)N(C)C)c1ccccc1S2 (stereo not given) | 500 mg/kg
42 | Cc1ccc(N)c(C)c1 | 1260 mg/kg
43 | CCCCc1c(C)nc(N(C)C)nc1O | 2350 mg/kg
44 | CCOc1ccc(NC(=O)CC(C)=O)cc1 | 176 mg/kg
45 | CSc1ccc2c(c1)N(CCCN(C)C)c1ccccc1S2 | 1450 mg/kg
46 | O=[N+]([O-])c1c(Cl)c(Cl)c(Cl)c2nc(C(F)(F)F)[nH]c12 | 19.3 mg/kg

Row | Compound | LD50
47 | COc1nc(Cl)nc(OC)n1 | 870 mg/kg
48 | CCOP(=O)(OCC)SC(P(=O)(OCC)OCC)(P(=O)(OCC)OCC)P(=O)(OCC)OCC | 28 mg/kg
49 | CC(C)n1nc(-c2cccc(Cl)c2Cl)c(N)nc1=N | 229 mg/kg
50 | C=CC(=O)NC | 476 mg/kg
51 | CSC(C)(C)C=NO | 742 mg/kg
52 | CCOP(=O)(OCC)SCSP(=S)(OCC)OCC | 35.1 mg/kg
53 | CC(C)Oc1ccccc1[N+](=O)[O-] | 2500 mg/kg
54 | CCCCCCCCCCCCN(CCC(=O)O)CCC(=O)O | 31300 mg/kg
55 | CCCCCCCCCCCCOCCOCCOCCOS(=O)(=O)O | 1820 mg/kg
56 | O=C1CC2(CCCC2)CC(=O)N1CCCCN1CCN(c2nsc3ccccc23)CC1 | 1850 mg/kg
57 | CC(C(=O)O)c1ccc2oc(-c3ccc(F)cc3)nc2c1 (stereo not given) | 521 mg/kg
58 | CN(C)CCC=C1c2ccccc2C(C)(C)c2ccccc21 | 170 mg/kg
59 | CO[Si](CCCN=C=O)(OC)OC | 878 mg/kg
60 | CCN(CC)C(C)C(=O)c1ccccc1 (stereo not given) | 400 mg/kg
61 | CN1CCC(Oc2ccc(N)cc2)(c2ccccc2)CC1 | 410 mg/kg
62 | CCCCCCCCOS(=O)(=O)O | 3200 mg/kg
63 | CC(=O)N(OCCN(C)C)C12CC3CC(CC(C3)C1)C2 | 630 mg/kg
64 | COc1ccccc1C1C(Cl)C(=O)N1c1ccccc1C(=O)O (stereo not given) | 2400 mg/kg
65 | O=S1(=O)CCC(Br)C1 (stereo not given) | 215 mg/kg
66 | OCC(CBr)(CBr)CBr | 1630 mg/kg
67 | [O-][N+](=Nc1ccccc1)c1ccccc1 | 620 mg/kg
68 | O=P(O)(O)OC(=CCl)c1ccc(Cl)cc1Cl | 13 mg/kg
69 | O=C(OC[C@H]1O[C@@H](OC(=O)c2cc(O)c(O)c(OC(=O)c3cc(O)c(O)c(O)c3)c2)[C@H](OC(=O)c2cc(O)c(O)c(OC(=O)c3cc(O)c(O)c(O)c3)c2)[C@@H](OC(=O)c2cc(O)c(O)c(OC(=O)c3cc(O)c(O)c(O)c3)c2)[C@@H]1OC(=O)c1cc(O)c(O)c(OC(=O)c2cc(O)c(O)c(O)c2)c1)c1cc(O)c(O)c(OC(=O)c2cc(O)c(O)c(O)c2)c1 | 2260 mg/kg

Row | Compound | LD50
70 | COCC(O)Cn1ccnc1[N+](=O)[O-] (stereo not given) | 2130 mg/kg
71 | CCNc1nc(=O)nc(NC(C)(C)C(=O)O)[nH]1 | 789 mg/kg
72 | CCCCSP(=O)(N(C)C)N(C)C | 208 mg/kg
73 | Nc1c(CC(=O)O)cccc1C(=O)c1ccccc1 | 311 mg/kg
74 | CC1C(=O)C[C@]2(C(C)C)C[C@H]12 (single isomer, unassigned; (-)) | 192 mg/kg
75 | CCCC(CCC)C(=O)O | 670 mg/kg
76 | O=C(OCCN1CCOCC1)c1cccnc1Nc1cccc(C(F)(F)F)c1 | 4300 mg/kg
77 | CCOc1ccc(N2CC(C(=O)N3CCNCC3)CC2=O)cc1 (stereo not given) | 550 mg/kg
78 | CC(CC(=O)OC(C)(C)C)=NNc1ccc(N2CCOCC2)nn1 | 970 mg/kg
79 | CCOC(=O)C1(c2ccccc2)CCN(CCOCC2CCCO2)CC1 (stereo not given) | 135 mg/kg
80 | CCCCCCCCCc1ccc(OCCOS(=O)(=O)O)cc1 | 10000 mg/kg
81 | Oc1ccc(C2=CCCCC2)cc1 | 2830 mg/kg
82 | CCCN(CCC)C(=O)SCc1ccccc1 | 1820 mg/kg
83 | O=C(Nc1nc(-c2ccccc2)cs1)OCC(Cl)(Cl)Cl | 550 mg/kg
84 | S=C1NCCS1 | 300 mg/kg
85 | Nc1cccc(-n2ccccc2=O)c1 | 2300 mg/kg
86 | c1nc(NC2CC2)c2ncn(CC3CC3)c2n1 | 160 mg/kg
87 | ClCC(Cl)(Cl)Cl | 670 mg/kg
88 | CC(O)CNC(C)(C)Cc1ccc(Cl)cc1 (stereo not given) | 150 mg/kg
89 | CCOP(=O)(OCC)SCC | 27 mg/kg
90 | Cc1cccc(C(=O)c2ccccc2)c1C | 4920 mg/kg
91 | C=CC(=O)OCCOCCOC(=O)C=C | 250 mg/kg
92 | O=C(CI)NC(=O)CI | 650 mg/kg

Row | Compound | LD50
93 | CCN(CC)CCCNc1c2ccccc2nc2cccc([N+](=O)[O-])c12 | 63.2 mg/kg
94 | CCCCCCc1ccc(C)cc1O | 2300 mg/kg
95 | OCC1COC(c2ccccc2)O1 (stereo not given) | 3150 mg/kg
96 | CCCCC(CC)COC(=O)C=CC(=O)OCC(CC)CCCC (stereo not given) | 29200 mg/kg and 14000 mg/kg
97 | Nc1ncnc2c1ccn2C1OC(CO)C(O)C1O (stereo not given) | 16 mg/kg
98 | C=COCCOCC1CO1 (stereo not given) | 2440 mg/kg
99 | C=C(C)C(=O)OCC(=O)OCC | 7880 mg/kg
100 | CC(=O)Oc1cc(C(F)(F)F)ccc1C(=O)O | 402 mg/kg
101 | O=c1[nH]c2ccccc2n1C1CCN(CCCC(c2ccc(F)cc2)c2ccc(F)cc2)CC1 | 1100 mg/kg
102 | O=C1CN=C(c2ccccc2F)c2cc(Cl)ccc2N1CC1CC1 | 10100 mg/kg
103 | CCS(=O)(=O)Cl | 360 mg/kg
104 | CCCc1ccc(C=O)cc1 | 1600 mg/kg
105 | CC(=O)CCc1ccc(O)cc1 | 1320 mg/kg
106 | CO[C@H]1CC[C@H](O[C@@]2(C)[C@H](C[C@@H]3C[C@@H](OC)[C@@H](C)[C@]4(O3)O[C@](C)(C3CC[C@@H]([C@H]5CC[C@H](C6O[C@](C)(O)[C@H](C)C[C@@H]6C)O5)O3)[C@H](OC)[C@H]4C)O[C@](O)([C@@H](C)C(=O)O)[C@H](C)[C@@H]2OC)O[C@@H]1C (stereo not given in full) | 10 mg/kg
107 | CC(C)(C)NCC(O)COc1cc(Cl)ccc1Cl (stereo not given) | 1300 mg/kg
108 | CCOC(=O)CN(C(=O)CCl)c1c(CC)cccc1CC | 2300 mg/kg
109 | CCC1(CC)C(=O)C=CNC1=O | 780 mg/kg
110 | CCC(C)NCC(O)c1ccc(N)cc1 (stereo not given) | 650 mg/kg
111 | NC(CCN1CCCCCC1)=NO | 500 mg/kg
112 | CC(=O)C(/N=N/c1ccc(-c2ccc(/N=N/C(C(C)=O)C(=O)Nc3ccccc3)c(Cl)c2)cc1Cl)C(=O)Nc1ccccc1 (stereo not given) | 2230 mg/kg
113 | CC(=O)Nc1ccc(C)c(NS(=O)(=O)C(F)(F)F)c1 | 2580 mg/kg
114 | O=[N+]([O-])CCCO | 77 mg/kg
115 | CCOP(=S)(OCC)SCCSCC(=O)NC | 18 mg/kg

Row | Compound | LD50
116 | CCCCC(CC)C(=O)OCCOCCOCCOCCOC(=O)C(CC)CCCC (stereo not given) | 18000 mg/kg
117 | CC(=O)OC1c2c(ccc3ccc(=O)oc23)OC(C)(C)C1OC(=O)C=C(C)C (stereo not given) | 832 mg/kg
118 | CCOC(=O)c1cnn(C)c1-n1cnc2ccccc2c1=O | 1760 mg/kg
119 | Cc1ncc(CO)c(C=O)c1O | 2150 mg/kg
120 | CC(Cc1ccc(C(C)(C)C)cc1)CN1C[C@@H](C)O[C@@H](C)C1 (single isomer, unassigned) | 3540 mg/kg
121 | O=NN(Cc1ccccc1)Cc1ccccc1 | 900 mg/kg
122 | CCOC1c2ccccc2C(=O)N(C)c2ccccc21 (stereo not given) | 4000 mg/kg
123 | O=c1c2ccccc2c2ccc3c4c(ccc1c24)c1ccc2c(=O)c4ccccc4c4nn3c1c24 | 13900 mg/kg
124 | COc1ccc2c(=O)oc3c(OC)cc(CCN(C)C)c4c(=O)oc1c2c34 | 518 mg/kg
125 | CCOC(=O)CSP(=O)(OCC)OCC | 45 mg/kg
126 | Cc1ccn(C(=O)NCCCCCCNC(=O)n2ccc(C)n2)n1 | 4850 mg/kg
127 | CS(=O)(=O)c1ccc2nc(C(F)(F)F)[nH]c2c1 | 69 mg/kg
128 | Cc1ccc(C=O)o1 | 2200 mg/kg
129 | CC(=O)OC12CCC(C)=CCC13CCC2C(C)(C=CC=C(C)C(=O)O)OC3=O (stereo not given) | 219 mg/kg
130 | CC(=O)O[C@]1(C(C)=O)CC[C@H]2[C@@H]3C=C(Cl)C4=CC(=O)CC[C@]4(C)[C@H]3CC[C@@]21C | 6400 mg/kg
131 | ClC(Cl)=C(c1ccc(Cl)cc1)c1ccccc1Cl | 880 mg/kg
132 | O=C(O)c1cc(S(=O)(=O)O)ccc1O | 1850 mg/kg
133 | Cc1cccc(N2CCN(CCC(O)c3ccc4c(c3)CCC(=O)N4)CC2)c1C (stereo not given) | 500 mg/kg
134 | ClCc1cc(Cl)cc(Cl)c1 | 1080 mg/kg
135 | CCCCCCCCCCCCCCCCOC(=O)Cc1ccc(N(CCCl)CCCl)cc1 | 100 mg/kg
